Drawing on PubChem BioAssay AID434987 (Southern Research Specialized Biocontainment Screening …, 2010), this text covers IC50 and IC90 for 22 compounds.

Structures are written as SMILES. Activity calls are given as the source filed them. The rule behind the calls is not given here.

For this experiment, the system named is M. tuberculosis H37Rv growth inhibition with meropenem. Briefly: dose response, H37Rv, with and without meropenem (AID 434987).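 Note: growth over 7 days at 37 °C before Alamar Blue read on day 9.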
The mark [1] stands for this setting: M. tuberculosis H37Rv growth inhibition, measured here: IC50 without meropenem.
The mark [2] stands for this setting: M. tuberculosis H37Rv growth inhibition, measured here: IC90 without meropenem.
The mark [3] stands for this setting: measured here: IC90 with meropenem.

As for `CC(C)(C)NCCCOc1ccc(Cl)cc1C(C)(C)C`, the IC50 (as a rule, the midpoint of a concentration-inhibition curve) is 24.8 µM (inactive). Under setting [1], this compound displayed an IC50 of 45.9 µM. The 90% effect concentration (IC90) – broadly, the concentration at which the effect reaches the 90% level – under setting [2] turned out to be 51.6 µM. Under setting [3], the IC90 was 26.9 µM.
As for `CCOC(=O)c1c(C)oc2c1c(CN1CCN(C(=O)OCC)CC1)c(O)c1ccccc12`, the IC50 was 51.5 µM (inactive). Also, under setting [1], the IC50 worked out at 51.2 µM. Under setting [2], the IC90 was more than 100 µM. The compound further showed an IC90 under setting [3] of more than 100 µM.
On to `O=C(Nc1nc2ccccc2n1CCN1CCCC1)C1CCCCC1`, for which the IC50 is 8.68 µM. The IC50 under setting [1] was 23.9 µM. Moreover, the IC90 under setting [2] turned out to be 47.2 µM. In addition, the IC90 under setting [3] was 27.5 µM.
For the compound `O=C(Nc1ccc2oc(-c3ccc(Cl)c(Cl)c3)nc2c1)c1ncn[nH]1`, the IC50 is 61.9 µM (inactive). The compound also came in with an IC50 under setting [1] of 79.8 µM. Under setting [2], the IC90 was more than 100 µM. This compound also registered an IC90 under setting [3] of more than 100 µM.
With `C#CCOc1c(Cl)cc(/C=N/NC(N)=S)cc1OCC`, the IC50 is 87.6 µM (inactive). The IC50 under setting [1] is more than 100 µM. This compound also gave an IC90 under setting [2] of more than 100 µM. Also, under setting [3], the IC90 was more than 100 µM.
With `CCOCC(=O)N1CCN(c2ccc(F)cc2)CC1`, the IC50 is 33.8 µM. Also, the IC50 under setting [1] is 84.1 µM. Under setting [2], the IC90 is more than 100 µM. The same compound gave a 90% effect concentration (IC90) under setting [3] of more than 100 µM.
As for `O=C(CN1CCN(S(=O)(=O)c2ccc(F)cc2)CC1)Nc1ccc2c(c1)OCCO2`, the IC50 was 19.1 µM. The compound further gave a half-inhibitory concentration (IC50) under setting [1] of 88.2 µM. Under setting [2], the concentration for an effect of 90% (IC90) is more than 100 µM. Under setting [3], this compound had an IC90 of more than 100 µM.
For the compound `Cc1cccc(C)c1-n1c(C)cc(/C=C2\C(=O)NN(c3ccccc3)C2=O)c1C`, the IC50 was > 100 µM (inactive). Under setting [1], this compound displayed an IC50 of more than 100 µM. The 90% effect concentration (IC90) under setting [2] is more than 100 µM. The 90% effect concentration (IC90) under setting [3] was more than 100 µM.
`COc1ccc(OC)c(Nc2nc(-c3cccs3)cs2)c1`: the IC50 was 42.8 µM (inactive). Besides, the IC50 under setting [1] was determined as 49 µM. Also, the concentration for an effect of 90% (IC90) under setting [2] is more than 100 µM. The same compound returned a concentration for an effect of 90% (IC90) under setting [3] of more than 100 µM.
Regarding `Nc1ccc(C(=O)O)c(O)c1`, the IC50 was 0.25 µM (inactive). Under setting [1], this compound came in with an IC50 of less than 0.2 µM. This compound registered an IC90 under setting [2] of 7.65 µM. Also, under setting [3], the IC90 was 1.88 µM.
As to `O=C(NNC(=O)c1ccc(Oc2cc(Cl)cc(Cl)c2)o1)c1ccccc1`, the IC50 is > 100 µM (inactive). The half-inhibitory concentration (IC50) under setting [1] was more than 100 µM. The compound also returned an IC90 under setting [2] of more than 100 µM. Besides, under setting [3], the 90% effect concentration (IC90) was more than 100 µM.
Take `COc1cc(C(=S)N2CCOCC2)ccc1OC(=O)c1ccc([N+](=O)[O-])cc1[N+](=O)[O-]`: the IC50 was 3.24 µM (inactive). Moreover, the concentration for half-maximal inhibition (IC50) under setting [1] was 6.01 µM. This compound also gave an IC90 under setting [2] of 7.13 µM. Under setting [3], this compound returned an IC90 of 5.92 µM.
For `O=C(O)CCCN1C(=O)/C(=C\c2ccc(-c3nc4ccccc4s3)o2)SC1=S`, in that order: 24.3 µM, 60.4 µM, more than 100 µM and more than 100 µM.
For `CCOc1ccc(/C=N/NC(=O)c2ccccc2O)cc1CN1CC2CC(C1)c1cccc(=O)n1C2` (stereo not drawn), in that order: 79.8 µM (inactive), 94.9 µM, more than 100 µM and more than 100 µM.
For `CCOC(=O)N1CCN(C(=O)CSc2nnc(-c3ccccc3OC)o2)CC1`, in that order: 6.68 µM, 30 µM, 62.6 µM and more than 100 µM.
With `c1ccc(CSc2nnc(-c3ccco3)o2)cc1`, the IC50 is > 100 µM (inactive). Also, under setting [1], the IC50 is more than 100 µM. The same compound showed an IC90 under setting [2] of more than 100 µM. Under setting [3], this compound registered a 90% effect concentration (IC90) of more than 100 µM.
`CCOc1cc(N2CCOCC2)c(OCC)cc1NC(=O)COc1cccc(CC)c1`: the IC50 was > 100 µM (inactive). The same compound yielded an IC50 under setting [1] of more than 100 µM. Under setting [2], this compound had an IC90 of more than 100 µM. The concentration for an effect of 90% (IC90) under setting [3] was more than 100 µM.
`Clc1ccc(CSc2ccc(-c3cccnc3)nn2)cc1`: the IC50 was 40.1 µM. For the same compound, the IC50 under setting [1] is more than 100 µM. The compound also displayed a concentration for an effect of 90% (IC90) under setting [2] of more than 100 µM. The compound further yielded an IC90 under setting [3] of more than 100 µM.
Take `N#Cc1ccccc1/C=N/Nc1nc(-c2ccccc2)c2cc(Br)ccc2n1`: the IC50 was > 100 µM (inactive). For the same compound, the half-maximal inhibitory concentration (IC50) under setting [1] is more than 100 µM. For the same compound, the IC90 under setting [2] is more than 100 µM. Also, under setting [3], the concentration for an effect of 90% (IC90) is more than 100 µM.
For `Cc1cc(F)ccc1NCC(=O)Nc1ccc(Br)cc1C`, the IC50 was 94.2 µM (inactive). Also, the half-inhibitory concentration (IC50) under setting [1] was 98.2 µM. Under setting [2], the IC90 is more than 100 µM. Under setting [3], this compound yielded an IC90 of more than 100 µM.
In the case of `Cc1cc(C(=O)Nc2ccc(Br)cc2F)n(-c2ccccc2)n1`, the IC50 is > 100 µM (inactive). The compound also showed an IC50 under setting [1] of more than 100 µM. The same compound came in with an IC90 under setting [2] of more than 100 µM. Moreover, under setting [3], the IC90 was more than 100 µM.
Take `CCc1cc(C(N)=S)ccn1`: the IC50 is 8.46 µM. Besides, under setting [1], the IC50 was 59.3 µM. Moreover, under setting [2], the IC90 was more than 100 µM. Under setting [3], this compound yielded an IC90 of 12.8 µM.
